# Measurements published in patent publication US4897391A, “Tricyclic anti-allergy, antiinflammatory and anti-hyperproliferative compounds” (Schering Corporation, priority 1988, dated 1990).
# Key:
# [1] = system: Peptidoleukotriene Release in Guinea Pig Lung; assay: Peptidoleukotriene Release Inhibition in Lung Assay; type: cell-based; conditions: Cavia porcellus; final concentration of 50 μm (so in the source); ovalbumin challenge, sensitized guinea pig lung
# Description: The anti-allergy method of this invention is identified by tests that measure inhibition of leukotriene release in sensitized guinea pigs by compounds of the invention. This procedure is as follows.
# First, kill sensitized guinea pigs by a blow to the head, remove the lungs and clean them of visible connective tissue, trachea and large blood vessels. Slice the lungs from individual animals into fragments approximately 1 mm in thickness using a McIlwain tissue chopper and wash them with oxygenated Tyrode's buffer. Transfer weighed aliquots (approximately 400 mg wet weight) of lung into vials containing 2 ml of fresh Tyrode's solution (containing 10 mM cysteine) and incubate in the presence or absence of test compound for 12 minutes at 37° C., challenge the tissues with 20 μg ovalbumin/ml (final concentration) and incubate for 15 minutes. To measure leukotriene release, extract an aliquot of supernatant fluid with 4 volumes of 100% ethanol. After removal of the precipitated protein, dry the clear fluid under a stream of N2 gas. Measure the leukotriene content by a radioimmunoassay using [^3 H]LTC4 (leukotriene C4) and antiserum obtained from New England Nuclear. […] Calculate percent inhibition of leukotriene release by comparing for each lung the release in the presence of the test compound to that in the absence of test compound.
# 5-lipoxygenase = biological target: T1, 5-lipoxygenase (Mus musculus, UniProt P48999); assay: 5-Lipoxygenase Assay (MC-9 mast cells, 5-HETE and LTC4 production); type: cell-based, murine; conditions: MC9, 50 μM dose; MC-9 cells; read-out: % Inhibition 5-HETE
# T1 construct: Preincubate MC-9 cells (0.39 ml at 7.5×10^6 cells/ml) without or with test compound; endogenous in cells; host or cells: MC-9 murine mast cell clone (interleukin-3-dependent)
# T1 sequence (P48999 1-674): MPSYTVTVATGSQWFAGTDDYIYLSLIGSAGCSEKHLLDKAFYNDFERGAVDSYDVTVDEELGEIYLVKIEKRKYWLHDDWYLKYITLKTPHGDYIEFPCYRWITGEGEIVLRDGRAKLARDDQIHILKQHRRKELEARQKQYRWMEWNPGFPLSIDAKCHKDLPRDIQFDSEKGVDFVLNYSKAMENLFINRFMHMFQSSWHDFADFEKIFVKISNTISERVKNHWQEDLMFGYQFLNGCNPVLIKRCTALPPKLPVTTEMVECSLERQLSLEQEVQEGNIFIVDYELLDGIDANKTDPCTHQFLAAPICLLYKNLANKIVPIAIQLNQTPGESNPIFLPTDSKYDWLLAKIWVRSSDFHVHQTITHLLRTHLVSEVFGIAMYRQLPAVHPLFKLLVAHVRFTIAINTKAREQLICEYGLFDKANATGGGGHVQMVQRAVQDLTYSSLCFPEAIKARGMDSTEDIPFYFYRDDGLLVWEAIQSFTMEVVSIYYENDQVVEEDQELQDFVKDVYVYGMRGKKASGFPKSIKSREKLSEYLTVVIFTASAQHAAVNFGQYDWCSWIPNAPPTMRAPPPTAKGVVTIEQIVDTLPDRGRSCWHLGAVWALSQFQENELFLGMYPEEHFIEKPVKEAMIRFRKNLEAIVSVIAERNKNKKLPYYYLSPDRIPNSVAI
# Description: Preincubate MC-9 cells (0.39 ml at 7.5×10^6 cells/ml) without or with test compound dissolved in dimethylsulfoxide (DMSO) vehicle (to a final volume 1 μl) for 4 minutes then incubate for 5 minutes with [^14 C]arachidonic acid (Amersham, 59 Ci/mole) at a 9 μM final concentration, and A23187 (Calbiochem) at a 1 μM final concentration in 10 μl of water:ethanol (9:1). Stop the reaction by addition of methanol (0.4 ml), and remove cellular debris by centrifugation. Run aliquots (250 μl) of the incubations on a Waters two-pump HPLC system fitted with a Waters radial compression column (C18, 10 micron, 8×100 mm, micro-Bondapak) and C18 "Guard Pak". Initially elute the column at 3 ml/min with water:methanol:acetic acid (67:33:0.08) containing 1 mM EDTA adjusted to pH 6.0 with ammonium hydroxide (Pump A). At 4 minutes, establish a linear gradient to reach 100% methanol (Pump B) at 9 minutes. Between 13 and 14 minutes, exchange for the initial eluting solvent and by 19 minutes the column will be reequilibrated for the next sample. Analyze the effluent by a continuous flow radioactivity monitor (model ROMONA-D) interfaced with a Hewlett Packard Lab Automation System for quantitation of radioactive products. […] Doses in table 2 are 50 μM unless otherwise noted.
# [2] = system: Reversed Passive Arthus Reaction (paw swelling); assay: Reversed Passive Arthus Reaction (RPAR) Assay; type: in vivo, Male Lewis inbred albino rats; conditions: 50 mg/kg p.o.; rat
# Description: Male Lewis inbred albino rats weighing 180-220 grams obtained from Charles River Breeding Laboratories are used in these experiments. House the rats 3 animals/cage and allow food and water ad libitum. Number the animals 1 to 3 in each cage and color mark them for identification purposes.
# Prepare all reagents and drugs just prior to the study. Without shaking, solubilize crystallized and lyophilized bovine serum albumin (BSA), obtained from Sigma Chemical Company, in cold sterile pyrogen-free saline (10 mg/ml PFS). Suspend lyophilized anti-bovine serum albumin (IgG Fraction), obtained from Cappel Laboratories, in sterile distilled water and dilute with cold pyrogen-free saline (PFS) just prior to use. The final concentration of anti-bovine serum albumin will be 0.5 mg/ml of PFS. Both BSA and anti-BSA solutions should be iced during use. Suspend or solubilize drugs in an aqueous solution of methyl cellulose (MC) with a homogenizer just prior to administration.
# Dose groups of animals (6/group) with drug in methyl cellulose (MC) by gastric lavage one hour prior to sensitization with BSA. Give controls MC alone and include drug-standard in each assay for verification purposes. Prepare drugs so as to provide a dose for a 200 gram animal which is equivalent to the mg/kg dose for the experiment. Thus each rat receives an oral dose in a volume of approximately 2.0 ml. […]
smiles,measurement,setting,value
"COc1cc(OC)c2c(C)c3n(c(=O)c2c1)CCCC3 [Compound E, 8,10-bis(methoxy)-1,2,3,4-tetrahydro-11-methyl-6H-benzo[b]quinolizin-6-one]",inhibition at 50 µM,[1],33%
same,inhibition at 50 µM,5-lipoxygenase,8%
same,inhibition of paw swelling,[2],59%
